Experimental data reported in patent publication US5804603A, “Synthesized β-adrenergic blockers derivatives of guaiacol” (National Science Council, priority 1995, dated 1998).
Where two headings read alike, the source gives them in different places.

Columns and labels:
[1] = tested on: β1 and β2 receptors; conditions: cited from earlier work
[2] = target: β-receptor (Cavia porcellus, UniProt H0W3H1); assay: Receptor binding assay, [3H]-dihydroalprenolol, heart ventricle membranes
Method: Method of receptor binding assay. After punching the heads of guinea pigs, the blood was drained and the heart ventricle immediately removed. The ventricles were placed in 10 vols. of ice-cold buffer (250 mM sucrose, 1 mM Magnesium Chloride, 50 mM Tris-HCl, pH 7.5) and all subsequent procedures were carried out at 4° C. The ventricles were homogenized using a homogenizer 3-4 times. The period of each homogenization took 15 seconds. […] The supernatant was further centrifuged at 10,000 g and the final pellet was resuspended in a small volume of 75 mM Tris buffer containing 25 mM Magnesium Chloride. The membrane protein content was determined by a protein assay dye. The receptor binding assay was initiated by incubating 100 μl of, a membrane protein solution with 50 μl of [^3 H]-dihydroalprenolol(^3 H-DHA) and the competing drugs. Additional buffer was added to increase the reaction volume up to 250 μl. The binding reaction was activated at 25° C. water by constantly shaking for 60 minutes. The binding reaction was stopped by diluting it with 1 ml of ice-cold assay buffer. The solution was then filtered on a Whatman GF/C glass fiber filter paper under vacuum suction. The filters were washed 3 times with ice-cold assay buffer and dried at 60±C. in an oven for 2 hrs. Then 4 ml of scintillation fluid was added and the radioactivity was counted on β-counter.

[3] = tested on: isolated rat right atrium; assay: Isolated rat right atrium pretreated with reserpine; assay type: cell-based
[4] = tested on: platelet aggregation induced by collagen; assay: Collagen-induced platelet aggregation in platelet rich plasma; assay type: cell-based; conditions: 10 μg/ml collagen, PRP; for IC100: Platelet, FIG. 18, read-out: concentration completely inhibiting platelet aggregation
Method: A monophasic aggregation curve was observed when 10 μg/ml of collagen was added to platelet rich plasma (PRP).

[5] = in vivo; conditions: mouse, mice, read-out: LD50 (95% C.L.)
[6] = tested on: acetic acid-induced writhing syndrome; assay: Acetic acid-induced writhing (antinociceptive test); assay type: in vivo, male mice (ddk strain); conditions: for Protection / Writhes No. (Ave. ± S.E.): 1.25 mg/kg i.p., N = 8; for ED50: Mus musculus, ip, read-out: ED50 (95% C.I.); for Potency ratio: relative to DZ = 1.00
Method: Following the method described by Koster antinociceptive tests were carried out in male mice after intraperitoneal administration of test solution. […] The test solution was administered by intraperitoneal injection of a single dose 0.2 ml (vehicle administered as control). Twenty minutes after injection, 0.2 ml of 0.7% acetic acid was injected intraperitoneally to induce writhing.

[7] = tested on: heart rate and blood pressure; assay: Heart rate and blood pressure changes of rats induced by guaiacoxypropanolamines; assay type: in vivo
[8] = target: T1, Isolated Guinea Pig Atria (Cavia porcellus, UniProt H0W3H1); assay: pA2 on isolated guinea pig atria; assay type: cell-based; conditions: for Kb / pA2, positive chronotropic / pA2, positive inotropic: isolated guinea pig atria; for Potency ratio (PR), positive chronotropic / Potency ratio (PR), positive inotropic: with respect to propranolol
T1 construct: Isolated Guinea Pig Atria; from tissue; host or cells: guinea pig atria (isolated organ)
Text: The determination of the pA2 is made from experiments in which a fixed concentration of the antagonist is used along with graded concentrations of an agonist acting on the same receptor. The presence of the antagonist shifts the agonist dose-response curve to the right.

[9] = target: T2, β2 adrenergic receptor (Rattus norvegicus, UniProt P10608); assay: Antagonism of isoproterenolol on isolated rat uterus horns; assay type: cell-based; conditions: 10^-8 -10^-6 M isoproterenolol
T2 construct: from tissue; host or cells: rat uterus horns (isolated organ, stilbestrol and reserpine pretreated)
Method: Female rats were intraperitonealy injected with stilbestrol (1 mg/kg) to elevate the sensitivity of β2 adrenergic receptor in uterus horns. The rats were subsequently administered reserpine to deplete the catecholamine in uterus. The isolated uterus horns were treated with phenoxybenzamine to block the neuronal uptake and the interaction between neuron cells and the adrenergic receptor.

[10] = tested on: heart rate and blood pressure; assay: Heart rate and blood pressure of anesthetized rats (i.v.); assay type: in vivo
Text: […]. The effect of DZN on heart rate and blood pressure were monitored.
[…]. Exp. Ther., vol. 96, 99-113). The ID50 value is the response of a β drug which produces a response in 50% of […].

[11] = tested on: platelets; conditions: cited from earlier work
[12] = mice, Litchfield and Wilcoxon method
[13] = 5 min after dosing, 1.0 mg/kg iv, means ± SE (n = 8)
[14] = 10 min after dosing, 1.0 mg/kg iv, means ± SE (n = 8)
[15] = 15 min after dosing, 1.0 mg/kg iv, means ± SE (n = 8)
[16] = 30 min after dosing, 1.0 mg/kg iv, means ± SE (n = 8)
[17] = 60 min after dosing, 1.0 mg/kg iv, means ± SE (n = 8)
[18] = read-out: pA2, positive chronotropic (converted)
[19] = read-out: pA2, positive inotropic (converted)

T1 sequence (H0W3H1 1-470): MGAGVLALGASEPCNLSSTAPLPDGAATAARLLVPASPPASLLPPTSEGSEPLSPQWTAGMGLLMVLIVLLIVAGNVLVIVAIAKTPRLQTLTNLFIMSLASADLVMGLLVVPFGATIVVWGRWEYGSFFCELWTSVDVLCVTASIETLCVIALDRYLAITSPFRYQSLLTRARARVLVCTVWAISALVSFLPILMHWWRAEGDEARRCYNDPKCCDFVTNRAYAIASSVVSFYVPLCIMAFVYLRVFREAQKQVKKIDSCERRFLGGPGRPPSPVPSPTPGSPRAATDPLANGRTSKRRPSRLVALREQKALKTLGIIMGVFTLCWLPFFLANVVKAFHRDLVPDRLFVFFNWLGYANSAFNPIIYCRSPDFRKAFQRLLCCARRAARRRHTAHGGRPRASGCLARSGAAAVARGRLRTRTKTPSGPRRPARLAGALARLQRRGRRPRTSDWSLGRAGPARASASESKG
T2 sequence (P10608 whole entry): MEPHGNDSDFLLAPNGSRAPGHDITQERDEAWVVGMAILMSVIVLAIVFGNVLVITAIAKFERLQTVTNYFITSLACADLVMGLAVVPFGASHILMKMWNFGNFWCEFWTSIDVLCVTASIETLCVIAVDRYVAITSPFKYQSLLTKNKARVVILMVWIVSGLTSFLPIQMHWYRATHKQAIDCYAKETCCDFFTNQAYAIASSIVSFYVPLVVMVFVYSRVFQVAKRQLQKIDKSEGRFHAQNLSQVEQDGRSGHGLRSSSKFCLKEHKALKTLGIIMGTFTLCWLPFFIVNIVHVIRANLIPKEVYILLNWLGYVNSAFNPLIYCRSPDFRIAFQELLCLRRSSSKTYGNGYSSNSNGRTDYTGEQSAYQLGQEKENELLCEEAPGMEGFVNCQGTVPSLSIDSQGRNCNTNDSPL
Sequence of β-receptor (H0W3H1 1-470): as the sequence (H0W3H1 1-470) above

In the case of `CC(C)NCC(O)COc1ccc(CC(N)=O)cc1` (racemic) [Atenolol, reference compound], the cardioselectivity [1] is listed as “possess cardioselectivity”.
Work on `COc1cc(CCC(C)=O)ccc1OCC(O)CNC(C)C` (racemic) [ZPN] yielded an EC50 [2] of 11000 nM.
For `CCCC(=O)Nc1ccc(OCC(O)CNC(C)C)c(C(C)=O)c1` (stereo not drawn) [Acebutolol], the cardioselectivity [1] is listed as “possess cardioselectivity”.
With `COc1cc(C=CC(C)=O)ccc1O` [DZ, 4-(4'-hydroxy-3'-methoxyphenyl)-3-buten-2-one] the “effect on heart rate” value ([3]; 10^-9 -10^-5 M) was “did not affect the heart rate within 10^-9 -10^-5 M”, the “inhibition of collagen-induced platelet aggregation” value (“inhibition” below) [4] was “dose-dependent inhibition of platelet aggregation” and the IC100 [4] was 250 µM. The LD50 ([5]; ip) was > 1000 mg/kg, the LD50 ([5]; po) was > 1000 mg/kg and the Protection [6] was 63.06%. The “Writhes No. (Ave. ± S.E.)” value [6] was 29.60 ± 3.75 and the ED50 [6, 12] was 0.38 mg/kg.
In the case of `COc1cc(C=CC(C)=O)ccc1OCC1CO1` (stereo not drawn) [DZE, 4-[4'-(2,3-Epoxypropoxy)-3'-methoxyphenyl]-3-buten-2-one], the “inhibition” value [4] is reported as “dose-dependent inhibition of platelet aggregation”, the IC100 [4] is reported as 100 µM and the Protection [6] is reported as 65.69%. For the same compound, the “Writhes No. (Ave. ± S.E.)” value [6] was 27.50 ± 3.32, the ED50 [6, 12] was 0.23 mg/kg and the Potency ratio [6] was 1.70.
In the case of `COCCc1ccc(OCC(O)CNC(C)C)cc1` (stereo not drawn) [Metoprolol], the cardioselectivity [1] is listed as “possess cardioselectivity”.
For `CCCCCCCCC(=O)NCc1ccc(OCC(O)CNC(C)(C)C)c(OC)c1` (stereo not drawn) [NH-t-C4 H9, N-[4-o-(2-hydroxy-3-(tert-butylamino)propoxy)-3-methoxybenzyl]-nonamide], the “change in BP” value [7, 13] was 3.13 ± 5.66 mmHg, the “change in HR” value [7, 13] was -45.00 ± 4.20 beats/min and the “change in BP” value [7, 14] was 3.38 ± 5.08 mmHg. For the same compound, the “change in HR” value [7, 14] was -37.75 ± 4.44 beats/min, the “change in BP” value [7, 15] was 2.38 ± 5.41 mmHg and the “change in HR” value [7, 15] was -29.50 ± 5.31 beats/min. For the same compound, the “change in BP” value [7, 16] was 1.25 ± 5.45 mmHg, the “change in HR” value [7, 16] was -24.88 ± 8.47 beats/min and the “change in BP” value [7, 17] was 4.63 ± 3.51 mmHg. The “change in HR” value [7, 17] was -18.50 ± 5.13 beats/min, the Kb [8, 18] was 39.8 nM and the Kb [8, 19] was 15.8 nM. The “Potency ratio (PR), positive chronotropic” value [8] was 0.19 and the “Potency ratio (PR), positive inotropic” value [8] was 0.24.
In the case of `CCCCCCCCC(=O)NCc1ccc(OCC(O)CNCC)c(OC)c1` (stereo not drawn) [NHC2 H5, N-[4-o-(2-hydroxy-3-(ethylamino)propoxy)-3-methoxybenzyl]-nonamide], the “change in BP” value [7, 13] is reported as 7.44 ± 3.16 mmHg, the “change in HR” value [7, 13] is reported as -38.33 ± 5.94 beats/min and the “change in BP” value [7, 14] is reported as 2.56 ± 2.56 mmHg. The “change in HR” value [7, 14] was -32.22 ± 5.36 beats/min, the “change in BP” value [7, 15] was 1.11 ± 1.78 mmHg and the “change in HR” value [7, 15] was -28.00 ± 7.02 beats/min. The “change in BP” value [7, 16] was -2.44 ± 3.05 mmHg, the “change in HR” value [7, 16] was -21.11 ± 8.75 beats/min and the “change in BP” value [7, 17] was 1.88 ± 1.62 mmHg. For the same compound, the “change in HR” value [7, 17] was 2.56 ± 11.66 beats/min, the “pA2, positive chronotropic” value [8] was 6.93 ± 0.09 and the “pA2, positive inotropic” value [8] was 7.27 ± 0.09. The “Potency ratio (PR), positive chronotropic” value [8] was 0.07 and the “Potency ratio (PR), positive inotropic” value [8] was 0.07.
For `C=CCNCC(O)COc1ccc(CNC(=O)CCCCCCCC)cc1OC` (stereo not drawn) [NHC3 H5, N-[4-0-(2-hydroxy-3-(allylamino)propoxy)-3-methoxybenzyl]-nonamide], the “change in BP” value [7, 13] was -1.56 ± 2.03 mmHg, the “change in HR” value [7, 13] was -36.78 ± 11.25 beats/min and the “change in BP” value [7, 14] was -2.67 ± 1.96 mmHg. The “change in HR” value [7, 14] was -28.22 ± 9.00 beats/min, the “change in BP” value [7, 15] was -1.89 ± 2.04 mmHg and the “change in HR” value [7, 15] was -19.89 ± 9.26 beats/min. The “change in BP” value [7, 16] was -1.11 ± 2.62 mmHg, the “change in HR” value [7, 16] was -5.00 ± 8.72 beats/min and the “change in BP” value [7, 17] was 4.78 ± 4.96 mmHg. The “change in HR” value [7, 17] was -7.56 ± 4.14 beats/min, the Kb [8, 18] was 93.3 nM and the Kb [8, 19] was 25.1 nM. For the same compound, the “Potency ratio (PR), positive chronotropic” value [8] was 0.08 and the “Potency ratio (PR), positive inotropic” value [8] was 0.15.
In the case of `CCCCCCCCC(=O)NCc1ccc(OCC(O)CNC)c(OC)c1` (stereo not drawn) [NHCH3, N-[4-o-(2-hydroxy-3-(methylamino)propoxy)-3-methoxybenzyl]-nonamide], the “change in BP” value [7, 13] is reported as -1.11 ± 2.31 mmHg, the “change in HR” value [7, 13] is reported as -34.56 ± 6.79 beats/min and the “change in BP” value [7, 14] is reported as -0.22 ± 2.10 mmHg. The “change in HR” value [7, 14] was -17.33 ± 5.31 beats/min, the “change in BP” value [7, 15] was -0.56 ± 1.65 mmHg and the “change in HR” value [7, 15] was -12.22 ± 4.33 beats/min. The “change in BP” value [7, 16] was 1.89 ± 2.14 mmHg, the “change in HR” value [7, 16] was 14.56 ± 7.73 beats/min and the “change in BP” value [7, 17] was 0.78 ± 1.37 mmHg. For the same compound, the “change in HR” value [7, 17] was 4.78 ± 4.37 beats/min, the Kb [8, 18] was 295 nM and the Kb [8, 19] was 74.1 nM. For the same compound, the “Potency ratio (PR), positive chronotropic” value [8] was 0.03 and the “Potency ratio (PR), positive inotropic” value [8] was 0.05.
For `CC(C)NCC(O)c1ccc(O)c(O)c1` (stereo not drawn) [isoproterenolol, reference compound], the “effect on heart rate and contraction force” value ([3]; FIG. 16) was “increases the heart rate and contraction force”, the “concentration of isoproterenolol giving maximum effect” value ([3]; FIG. 17) was 3 µM and the “effect on isolated uterus horn smooth muscle” value [9] was “dose-related decrease in relaxation force”. For the same compound, the “effect on blood pressure” value ([10]; isoproterenolol 0.5 mg/kg) was “decreased blood pressure” and the “effect on heart rate” value ([10]; isoproterenolol 0.5 mg/kg) was “increased the heart rate”.
With `CC(C)NCC(O)COc1cccc2ccccc12` (stereo not drawn) [propranolol, reference compound] the “change in HR” value [7, 13] was -57.28 ± 5.94 beats/min, the “change in BP” value [7, 14] was -6.33 ± 2.16 mmHg and the “change in HR” value [7, 14] was -63.85 ± 7.18 beats/min. The “change in BP” value [7, 15] was -6.50 ± 3.26 mmHg, the “change in HR” value [7, 15] was -65.28 ± 8.43 beats/min and the “change in BP” value [7, 16] was -4.67 ± 2.66 mmHg. The “change in HR” value [7, 16] was -62.57 ± 9.06 beats/min, the “change in BP” value [7, 17] was 2.17 ± 3.29 mmHg and the “change in HR” value [7, 17] was -52.14 ± 10.93 beats/min. The “change in BP” value ([7]; iv, 1 mg/kg, 5 min) was -2.83 ± 1.81 mmHg, the “inhibition” value [4] was “dose-dependent inhibition of platelet aggregation” and the “adherence of platelets on collagen” value [11] was “inhibit platelet release and the adherence of platelets on collagen”. The platelet release [11] was “inhibit platelet release”, the “shape change of platelets” value [11] was “does not inhibit the shape change of platelets” and the “effect on isoproterenolol-induced heart rate and blood pressure changes” value ([10]; FIGS. 6(A), 6(B)) was “antagonized the effects of isoproterenolol”. The ED50 ([10]; Rattus norvegicus, iv, anesthetized rats, Litchfield method, read-out: ID50 : heart rate response (95% C.I.)) was 0.14 mg/kg, the “ID50 : heart rate response (95% C.I.)” value ([10]; i.v., anesthetized rats, Litchfield method) was 0.14 (0.96-0.02) mg/kg and the “time of slightly reduced blood pressure after injection” value ([10]; i.v., statistical significance not found) was 5 to 10 min.
With `COc1cc(CCC(C)=O)ccc1O` [zingerone, 4-(4'-hydroxy-3'-methoxyphenyl)-3-butan-2-one, reference compound] the “inhibition” value [4] was “dose-dependent inhibition of platelet aggregation”, the “antinociceptive potency relative to DZ” value [6] was 3 times and the Protection [6] was 71.10%. The “Writhes No. (Ave. ± S.E.)” value [6] was 20.75 ± 3.40, the ED50 [6] was 0.25 mg/kg and the Potency ratio [6] was 1.50.
For “N-[4-0-(2-hydroxy-3-(3-aminopentylamino)propoxy)-3-methoxybenzyl-]-nonamide [NHC5 H11]”, the “change in BP” value [7, 13] was -2.78 ± 2.33 mmHg, the “change in HR” value [7, 13] was -28.11 ± 9.34 beats/min and the “change in BP” value [7, 14] was -2.56 ± 1.42 mmHg. The “change in HR” value [7, 14] was -28.89 ± 6.30 beats/min, the “change in BP” value [7, 15] was -3.22 ± 1.78 mmHg and the “change in HR” value [7, 15] was -22.78 ± 5.04 beats/min. For the same compound, the “change in BP” value [7, 16] was -1.33 ± 1.38 mmHg, the “change in HR” value [7, 16] was -2.22 ± 7.28 beats/min and the “change in BP” value [7, 17] was 0.67 ± 0.47 mmHg. For the same compound, the “change in HR” value [7, 17] was -3.33 ± 5.69 beats/min, the “pA2, positive chronotropic” value [8] was 7.25 ± 0.10 and the “pA2, positive inotropic” value [8] was 7.26 ± 0.08. For the same compound, the “Potency ratio (PR), positive chronotropic” value [8] was 0.14 and the “Potency ratio (PR), positive inotropic” value [8] was 0.07.
